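Grown in 96-well plates, cells were treated for 48 hours with each compound at five concentrations. Insufficient inhibition: endpoint recorded as highest concentration tested. Here, GI50 denotes the concentration required for 50% inhibition of growth. TGI: total growth inhibition.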
What was measured:
Experiment in all cases: NCI anticancer screen, dose series, 48 h
ACHN renal = tested on: ACHN renal
IGROV1 ovarian = tested on: IGROV1 ovarian
UACC-257 melanoma = tested on: UACC-257 melanoma
SK-OV-3 ovarian = tested on: SK-OV-3 ovarian
LOX IMVI melanoma = tested on: LOX IMVI melanoma
DMS 273 small cell lung = tested on: DMS 273 small cell lung
CAKI-1 renal = tested on: CAKI-1 renal
KM20L2 colon = tested on: KM20L2 colon
K-562 leukemia = tested on: K-562 leukemia
MOLT-4 leukemia = tested on: MOLT-4 leukemia
OVCAR-8 ovarian = tested on: OVCAR-8 ovarian
HCC-2998 colon = tested on: HCC-2998 colon
SF-539 CNS = tested on: SF-539 CNS
DLD-1 colon = tested on: DLD-1 colon
KM12 colon = tested on: KM12 colon
LXFL 529 NSCLC = tested on: LXFL 529 NSCLC
HOP-62 NSCLC = tested on: HOP-62 NSCLC
A549 NSCLC = tested on: A549 NSCLC
RXF-631 renal = tested on: RXF-631 renal
UO-31 renal = tested on: UO-31 renal
TK-10 renal = tested on: TK-10 renal
SR leukemia = tested on: SR leukemia
786-0 renal = tested on: 786-0 renal
SF-295 CNS = tested on: SF-295 CNS
M19-MEL melanoma = tested on: M19-MEL melanoma
OVCAR-4 ovarian = tested on: OVCAR-4 ovarian
COLO 205 colon = tested on: COLO 205 colon
OVCAR-5 ovarian = tested on: OVCAR-5 ovarian
OVCAR-3 ovarian = tested on: OVCAR-3 ovarian
HCT-15 colon = tested on: HCT-15 colon
SN12C renal = tested on: SN12C renal
MALME-3M melanoma = tested on: MALME-3M melanoma
SNB-75 CNS = tested on: SNB-75 CNS
SNB-78 CNS = tested on: SNB-78 CNS
SK-MEL-2 melanoma = tested on: SK-MEL-2 melanoma
A498 renal = tested on: A498 renal
XF 498 CNS = tested on: XF 498 CNS
HCT-116 colon = tested on: HCT-116 colon
HOP-92 NSCLC = tested on: HOP-92 NSCLC
DMS 114 small cell lung = tested on: DMS 114 small cell lung
RXF 393 renal = tested on: RXF 393 renal
M14 melanoma = tested on: M14 melanoma
NCI-H460 lung = tested on: NCI-H460 lung
UACC-62 melanoma = tested on: UACC-62 melanoma
EKVX NSCLC = tested on: EKVX NSCLC
SK-MEL-28 melanoma = tested on: SK-MEL-28 melanoma
RPMI-8226 leukemia = tested on: RPMI-8226 leukemia
SK-MEL-5 melanoma = tested on: SK-MEL-5 melanoma
NCI-H23 lung = tested on: NCI-H23 lung
NCI-H522 lung = tested on: NCI-H522 lung
HL-60(TB) leukemia = tested on: HL-60(TB) leukemia
HT29 colon = tested on: HT29 colon
U251 CNS = tested on: U251 CNS
SNB-19 CNS = tested on: SNB-19 CNS
NCI-H226 lung = tested on: NCI-H226 lung
SW-620 colon = tested on: SW-620 colon

Compound `CCC[CH2][Sn]([CH2]CCC)([O]C(=O)C1CCC(=O)N1)[O]C(=O)C1CCC(=O)N1` (configuration not stated) has a GI50 (ACHN renal) of 220 nM, a TGI (ACHN renal) of 512 nM and a GI50 (IGROV1 ovarian) of 1100 nM. It also gave a TGI (IGROV1 ovarian) of 2480 nM, a GI50 (UACC-257 melanoma) of 159 nM and a TGI (UACC-257 melanoma) of 338 nM. For the same compound, the GI50 (SK-OV-3 ovarian) was 801 nM, the TGI (SK-OV-3 ovarian) was 2020 nM and the GI50 (LOX IMVI melanoma) was 152 nM. For the same compound, the TGI (LOX IMVI melanoma) was 328 nM, the GI50 (DMS 273 small cell lung) was 336 nM and the TGI (DMS 273 small cell lung) was 1160 nM. It also gave a GI50 (CAKI-1 renal) of 75.7 nM, a TGI (CAKI-1 renal) of 356 nM and a GI50 (KM20L2 colon) of 446 nM. It also gave a TGI (KM20L2 colon) of 1690 nM, a GI50 (K-562 leukemia) of 138 nM and a TGI (K-562 leukemia) of 565 nM. It also gave a GI50 (MOLT-4 leukemia) of 245 nM, a TGI (MOLT-4 leukemia) of 755 nM and a GI50 (OVCAR-8 ovarian) of 319 nM. It also gave a TGI (OVCAR-8 ovarian) of 1010 nM, a GI50 (HCC-2998 colon) of 400 nM and a TGI (HCC-2998 colon) of 1590 nM. It also gave a GI50 (SF-539 CNS) of 185 nM, a TGI (SF-539 CNS) of 414 nM and a GI50 (DLD-1 colon) of 353 nM. The TGI (DLD-1 colon) was 1520 nM, the GI50 (KM12 colon) was 496 nM and the TGI (KM12 colon) was 1730 nM. It also gave a GI50 (LXFL 529 NSCLC) of 49.8 nM, a TGI (LXFL 529 NSCLC) of 188 nM and a GI50 (HOP-62 NSCLC) of 619 nM. The TGI (HOP-62 NSCLC) was 2040 nM, the GI50 (A549 NSCLC) was 2010 nM and the TGI (A549 NSCLC) was 3640 nM. It also gave a GI50 (RXF-631 renal) of 159 nM, a TGI (RXF-631 renal) of 297 nM and a GI50 (UO-31 renal) of 711 nM. It also gave a TGI (UO-31 renal) of 1980 nM, a GI50 (TK-10 renal) of 240 nM and a TGI (TK-10 renal) of 682 nM. For the same compound, the GI50 (SR leukemia) was 180 nM, the TGI (SR leukemia) was 526 nM and the GI50 (786-0 renal) was 196 nM. For the same compound, the TGI (786-0 renal) was 409 nM, the GI50 (SF-295 CNS) was 274 nM and the TGI (SF-295 CNS) was 1050 nM. The GI50 (M19-MEL melanoma) was 244 nM, the TGI (M19-MEL melanoma) was 824 nM and the GI50 (OVCAR-4 ovarian) was 376 nM. It also gave a TGI (OVCAR-4 ovarian) of 1710 nM, a GI50 (COLO 205 colon) of 363 nM and a TGI (COLO 205 colon) of 1160 nM. It also gave a GI50 (OVCAR-5 ovarian) of 2050 nM, a TGI (OVCAR-5 ovarian) of 3480 nM and a GI50 (OVCAR-3 ovarian) of 218 nM. The TGI (OVCAR-3 ovarian) was 663 nM, the GI50 (HCT-15 colon) was 182 nM and the TGI (HCT-15 colon) was 353 nM. The GI50 (SN12C renal) was 341 nM, the TGI (SN12C renal) was 1200 nM and the GI50 (MALME-3M melanoma) was 78.3 nM. For the same compound, the TGI (MALME-3M melanoma) was 243 nM, the GI50 (SNB-75 CNS) was 221 nM and the TGI (SNB-75 CNS) was 752 nM. The GI50 (SNB-78 CNS) was 260 nM, the TGI (SNB-78 CNS) was 759 nM and the GI50 (SK-MEL-2 melanoma) was 181 nM. It also gave a TGI (SK-MEL-2 melanoma) of 367 nM, a GI50 (A498 renal) of 210 nM and a TGI (A498 renal) of 517 nM. It also gave a GI50 (XF 498 CNS) of 217 nM, a TGI (XF 498 CNS) of 376 nM and a GI50 (HCT-116 colon) of 786 nM. For the same compound, the TGI (HCT-116 colon) was 2040 nM, the GI50 (HOP-92 NSCLC) was 141 nM and the TGI (HOP-92 NSCLC) was 575 nM. It also gave a GI50 (DMS 114 small cell lung) of 168 nM, a TGI (DMS 114 small cell lung) of 367 nM and a GI50 (RXF 393 renal) of 300 nM. For the same compound, the TGI (RXF 393 renal) was 473 nM, the GI50 (M14 melanoma) was 200 nM and the TGI (M14 melanoma) was 456 nM. It also gave a GI50 (NCI-H460 lung) of 1270 nM, a TGI (NCI-H460 lung) of 2530 nM and a GI50 (UACC-62 melanoma) of 154 nM. It also gave a TGI (UACC-62 melanoma) of 331 nM, a GI50 (EKVX NSCLC) of 264 nM and a TGI (EKVX NSCLC) of 918 nM. The GI50 (SK-MEL-28 melanoma) was 258 nM, the TGI (SK-MEL-28 melanoma) was 654 nM and the GI50 (RPMI-8226 leukemia) was 124 nM. It also gave a TGI (RPMI-8226 leukemia) of 669 nM, a GI50 (SK-MEL-5 melanoma) of 461 nM and a TGI (SK-MEL-5 melanoma) of 1650 nM. It also gave a GI50 (NCI-H23 lung) of 147 nM, a TGI (NCI-H23 lung) of 384 nM and a GI50 (NCI-H522 lung) of 26.3 nM. For the same compound, the TGI (NCI-H522 lung) was 110 nM, the GI50 (HL-60(TB) leukemia) was 157 nM and the TGI (HL-60(TB) leukemia) was 445 nM. For the same compound, the GI50 (HT29 colon) was 588 nM, the TGI (HT29 colon) was 2060 nM and the GI50 (U251 CNS) was 164 nM. The TGI (U251 CNS) was 330 nM, the GI50 (SNB-19 CNS) was 303 nM and the TGI (SNB-19 CNS) was 909 nM. The GI50 (NCI-H226 lung) was 1430 nM, the TGI (NCI-H226 lung) was 2810 nM and the GI50 (SW-620 colon) was 134 nM. It also gave a TGI (SW-620 colon) of 307 nM.
